# From patent publication US7355074B2, “Compounds having aromatic rings and side-chain amide-functionality and a method for transporting monovalent anions across biological membranes using the same” (The University of Maryland, priority 2003, dated 2008)
# How the values were obtained:
# Type in all cases: biochemical
# [1] = pH-assisted fluorimetric transport assay with calixarene amides (HPTS-loaded liposomes); conditions: extravesicular Na, K or Cs chloride; ligand lipid ratios of up to 1:20
# Protocol: The ability of 1 and 2 to mediate ion flux across a lipid bilayer was studied fluorimetrically. A solution of 1 or 2 was added to a suspension of EYPC large unilamellar vesicles (LUVs) containing the pH-sensitive dye pyranine. An NaOH solution was added to the extravesicular buffer to create a gradient of approximately one pH unit. The resulting electrostatic potential, caused by proton efflux from the liposomes, can be compensated by cation influx or anion efflux, as mediated by the exogenous ligand. Ion transport across the membrane was signaled by the increase in relative fluorescence that accompanied the rise in intravesicular pH.
# Liposome Preparation. EYPC HPTS-Containing LUVs, egg yolk 1-α-phosphatidylcholine (EYPC, 60 mg, […]) was dissolved in a CHCl3MeOH mixture, the solution was evaporated under reduced pressure, and the resulting thin film was dried under high vacuum for 2 h. The lipid film was hydrated in 1.2 mL of phosphate buffer (10 mM sodium phosphage, pH=6.4, 75-100 mM MX, M=Na^+, K^+, Cs^+, X=[…], SO4^2−) containing 10 μM HPTS (pyranine 8-hydroxypyrene-1,3,6-trisulfonic acid trisodium salt) for 2 h. The LUV suspension (1 mL) was submitted to high-pressure extrusion at room temperature (2) extrusions through a 0.1 μM polycarbonate membrane afforded LUVs with a diameter of 100 nm). The LUV suspension was separated from extravesicular dye by size exclusion chromatography (SEC) stationary phase: Sephadex G-10, mobile phase:phosphate buffer) and diluted with the same phosphate buffer to give a stock solution with a lipid concentration of 11 mM (assuming 100% of lipid was incorporated into liposomes).
# Fluorimetric Transport Assays. pH-Assisted Transport Assays. Typically, 100 μL of HPTS-loaded vesicles (stock solution) was suspended in 1.85 mL of the corresponding buffer and placed into a fluorimetric cell. HPTS emission at 510 nm was monitored with excitation wavelengths at 403 and 460 nm simultaneously. During the experiment, 20 μL of a 0-10 mM THF solution of the compound of interest was added through an injection port, followed by injection of 21 μL of 0.5 M aqueous NaOH. Addition of the NaOH caused a pH increase of approximately 1 pH unit in the extravesicular buffer. Maximal changes in dye emission were obtained at the end of each experiment by lysis of the liposomes with detergent (40 μL of 5% aqueous Triton x100). The final transport trace was obtained as a ratio of the emission intensities monitored at 460 and 403 nm and normalized to 100% of transport.
# [2] = pH-stat fluorescent transport assay with oligophenoxyacetamides (HPTS-loaded liposomes); conditions: 100 mM NaCl inside and outside
# Protocol: FIGS. 1A and 1B are derived from of pH-stat fluorescent assays with oligophenoxyacetamide compounds 1-6 described herein. Suspensions of EYPC LUVs containing the pH sensitive dye pyranine (ex 405 nm and 460 nm em 510 nm) in a phosphate buffer were used (0.5 mM of lipid, 10 mM NanH3-nPO4 n=1, 2, pH 6.4 100 mM NaCl inside and outside) (A) illustrates initial pseudo-first order rate constants in the presence of 5 μm of ionophores 1-6 (1 mol % injection of 20 μl of 0.5 mM DMSO solution of 1-6 into 1.9 mL of vesicular suspension was followed by injection of 21 μl of 0.5 M NaOH and final lysis of liposomes with Triton X-100; (B) illustrates initial pseudo-first order rate constants assessed for various concentrations of oligomeric ionophores 2-6. The same experimental protocol as in (A) was used. Legend for traces denotes use of oligocompounds 2, 3, 4, 5, 6.
# (§1) Liposome Preparation for Fluorimetric Assays. Egg yolk L-α-phosphatidylcholine (EYPC ethanol solution, […], 79 μmol) was dissolved in a CHCl3/MeOH mixture, the solution was evaporated under reduced pressure and the resulting thin film was dried under high vacuum for 2 h. The lipid film was hydrated in 1.2 mL of phosphate buffer (10 mM sodium phosphate, pH=6.4, 75-100 mM MnX, M=N^+, K^+, X=Cl^−, SO4^2−, n=1,2) containing 10 μM HPTS (pyranine, 8-hydroxypyrene-1,3,6-trisulfonic acid trisodium salt) for 40 min. During hydration, the suspension was submitted to 5 freeze-thaw cycle (liquid nitrogen, water at rt). The large multilamellar liposome suspension (1 mL) was submitted to high-pressure extrusion at rt (21 extrusions through a 0.1 μm polycarbonate membrane afforded a suspension of LUVs with an average diameter of 100 nm). The LUV suspension was separated from extravesicular dye by size exclusion chromatography (SEC) (stationary phase: Sephadex G-10, mobile phase: phosphate buffer) and diluted with the same phosphate buffer to give a stock solution with a lipid concentration of 11 mM (assuming 100% of lipid was incorporated into liposomes).
# pH-state transport assays. Typically, 100 μL of HPTS-loaded vesicles (stock solution) was suspended in 1.9 mL of the corresponding buffer and placed into a fluorimetric cell. The emission of HPTS at 510 nm was monitored with excitation wavelengths at 403 and 460 nm simultaneously. During the experiment, 20 μL of a 0-10 mM DMSO solution of the compounds of interest was added (through an injection port), followed by injection of 21 μL of 0.5 M aqueous NaOH. […] Maximal possible changes in dye emission were obtained at the end of each experiment by lysis of the liposomes with detergent (40 μL of 5% aqueous Triton X100). The final transport trace was obtained as a ratio of the emission intensities monitored at 460 and 403 nm and normalized to 100% of transport. Pseudo-first order rate constants were calculated from slopes of the plot of In([H^+ins]−[H^+out]) versus time, here [H^+ins] and [H^+out] are the intravesicular and extravesicular proton concentrations, respectively. The [H^+out] was assumed to remain constant over the course of the experiment, while [H^+ins] values were calculated for each point from the HPTS emission intensities according to the calibration equation pH=1.1684·log(Io/Il)+6.9807, where Io is the emission intensity with excitation at 460 nm and Il is emission intensity with excitation at 403 nm. The calibration was performed by measuring the HPTS emission intensities and the pH values of a […] HPTS solution in 10 mM phosphate buffer containing 100 mM NaCl (see FIG. s3). The absolute values for rate constants varied depending on the age of the vesicular solution and the actual stock solution of liposomes used.
# [3] = pH changes in liposomes experiencing a Cl- gradient (oligophenoxyacetamides); conditions: NaCl-loaded liposomes in Na2SO4 buffer; for alkalinization of the vesicular compartment: equal amount (4 mol %)
# Protocol: FIG. 2B illustrates alkanization of the vesicular aqueous compartment upon application of compounds 1-6 to a suspension of NaCl-containing vesicles in isosmomolar Na2SO4 buffer. Concentration of compounds 1-6 in the vesicular suspension was 20 μm (4 mol %). Legend for traces denotes use of oligocompounds 1, 2, 3, 4, 5, 6.
# as §1
# (§2) Analysis of pH changes in the liposomes experiencing a CT gradient. a) Outwardly directed gradient of Cl:HPTS-loaded vesicles (100 μL of the stock solution), filled with a saline phosphate buffer (10 mM sodium phosphate, pH 6.4, 100 mM NaCl) were suspended in 1.9 mL of an isosmotic phosphate sulfate buffer (10 mM sodium phosphate, pH 6.0, 75 mM Na2SO4) and placed into a fluorimetric cell. The emission of HPTS at 510 nm was monitored with excitation wavelengths at 403 and 460 nm simultaneously. During the experiment, 20 μL of a 0-2 mM DMSO solution of the compound of interest was added through an injection port. Intravesicular pH values were obtained as described for pH-stat transport assays. At the end of experiment, the aqueous compartment of liposomes was equilibrated with extravesicular solution by lysis of liposomes with detergent (40 μL of 5% aqueous Triton X100). b) Inwardly directed gradient of Cl:HPTS-loaded vesicles (100 μL of the stock solution), filled with a isoosimomolar sulfate phosphate buffer (10 mM sodium phosphate, pH 6.0, 75 mM Na2SO4) were suspended in 1.9 mL of an isosmotic phosphate saline buffer (10 mM sodium phosphate, pH 6.4, 100 mM NaCl) and placed into a fluorimetric cell. Further analysis was conducted as described for the case of an outwardly directed gradient of […]. Analysis of the electrostatic potential on the surface of liposomes. LUVs (100 μL of stock solution, 100 mM KCl inside and outside or 75 mM Na2SO4 inside and outside) were suspended in 1.9 mL of 100 mM NaCl buffer containing 60 nM safranin O (a potential-sensitive dye). Safranin O emission was monitored at 580 nm with excitation at 520 nm. During the course of the experiment, 20 μL of a 0-0.12 mM DMSO solution of valinomycin or 0-2 mM of 3-8 DMSO solution was added. Experiments were completed by injection of 20 μL of 1 mM aqueous solution of the defect-inductive peptide melittin.
# [4] = liposome potential assay with safranin O; conditions: Na2SO4 vesicles in NaCl buffer (conditions of the trimer)
# Protocol: FIG. 3 illustrates liposome potential assays. Suspension of EYPC LUVs in phosphate buffer was used (10 m M Nan H3-n PO4, n=1, 2, pH 6.4, 100 m M KCl or 75 m M Na2 H3-n PO4, n=1, 2, pH 6.4, 100 m M KCl or 75 m M NA2 SO4 inside and 100 m M NaCl, 60 nM safranin O, ex 480 nm, em 520 nm, outside). Legend for trace denotes the formation of potential in: —KCl vesicles upon application of valinmycin·Na2SO4 vesicles upon application of 3, —KCl vesicles upon application of 3, —Na2SO4 vesicles upon application of valinomycin.
# as §2
structure (smiles),measurement,setting,value
"CNC(=O)COc1c2cccc1Cc1cccc(c1OCC(=O)NC)Cc1cccc(c1OCC(=O)NC)Cc1cccc(c1OCC(=O)NC)C2 [Calix[4]arene tetramethylamide 1, Calix[4]arene tetramethylamide]",transport activity,[1],little transport activity
"CCCCNC(=O)COc1ccccc1Cc1ccccc1OCC(=O)NCCCC [Dimer 2, bis-(N-butyl-2-phenoxyacetamide)]",transport activity,[2]; below 4 mol % (20 μm),moderate transport activity
same,alkalinization of the vesicular compartment,[3],Alkanization of the vesicular compartment was observed
"CCCCNC(=O)COc1ccccc1Cc1cccc(Cc2cccc(Cc3cccc(Cc4cccc(Cc5ccccc5OCC(=O)NCCCC)c4OCC(=O)NCCCC)c3OCC(=O)NCCCC)c2OCC(=O)NCCCC)c1OCC(=O)NCCCC [hexamer 6, Hexakis-(N-butyl-2-phenoxyacetamide)]",alkalinization of the vesicular compartment,[3],Alkanization of the vesicular compartment was observed
"CCCCNC(=O)COc1ccccc1Cc1cccc(Cc2cccc(Cc3cccc(Cc4ccccc4OCC(=O)NCCCC)c3OCC(=O)NCCCC)c2OCC(=O)NCCCC)c1OCC(=O)NCCCC [pentamer 5, Pentakis-(N-butyl-2-phenoxyacetamide)]",alkalinization of the vesicular compartment,[3],Alkanization of the vesicular compartment was observed
"CCCCNC(=O)COc1ccccc1Cc1cccc(Cc2cccc(Cc3ccccc3OCC(=O)NCCCC)c2OCC(=O)NCCCC)c1OCC(=O)NCCCC [tetramer 4, Tetrakis-(N-butyl-2-phenoxyacetamide)]",relative transport activity within the series 1-6,[2],generally more effective than pentamer 5 and hexamer 6
same,pH gradient generated,[3]; 4 mol %,the same pH gradient
same,time to reach the pH gradient,[3]; 4 mol %,4.5 minutes
same,relative ability to alter the pH in liposomes under a Cl− gradient,[3],less active than trimer 3
"CC(C)[C@@H]1NC(=O)[C@H](C)OC(=O)[C@@H](C(C)C)NC(=O)[C@@H](C(C)C)OC(=O)[C@H](C(C)C)NC(=O)[C@H](C)OC(=O)[C@@H](C(C)C)NC(=O)[C@@H](C(C)C)OC(=O)[C@H](C(C)C)NC(=O)[C@H](C)OC(=O)[C@@H](C(C)C)NC(=O)[C@@H](C(C)C)OC1=O [valinomycin, reference compound]",ability to create a transmembrane potential,[4],cannot create a potential
